Source: ChEMBL document CHEMBL1201862, “PubChem BioAssay data set” (2004)
Counter-ions that a name gives are not always drawn.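 Results reflect a 48-hour exposure of cells in 96-well plates to compound at five concentrations. GI50 = concentration required for 50% inhibition of growth.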 Activity calls are given as the source filed them. Rule as the data show it: active = GI50 up to about 1.1 µM and inactive = higher.

Key:
Test in all cases: growth of human tumour cells (NCI), 48 h
[1] = system: 786-0
[2] = system: CAKI-1
[3] = system: COLO 205
[4] = system: DU-145
[5] = system: HCC 2998
[6] = system: HCT-15
[7] = system: IGROV-1
[8] = system: KM12
[9] = system: M14
[10] = system: MDA-MB-435
[11] = system: MOLT-4
[12] = system: NCI-H460
[13] = system: NCI-H522
[14] = system: OVCAR-5
[15] = system: RXF 393
[16] = system: SF-539
[17] = system: SK-MEL-5
[18] = system: SK-OV-3
[19] = system: SNB-75
[20] = system: HOP-62

Structure (SMILES)	GI50 [1]	GI50 [2]	GI50 [3]	GI50 [4]	GI50 [5]	GI50 [6] [µM]	GI50 [7]	GI50 [8]	GI50 [9]	GI50 [10]	GI50 [11]	GI50 [12]	GI50 [13]	GI50 [14]	GI50 [15]	GI50 [16]	GI50 [17]	GI50 [18]	GI50 [19]	GI50 [20]
CCSc1nc(C)nc2c1sc1nc3ccccc3n12	> 100 µM (inactive)	> 100 µM (inactive)	> 100 µM (inactive)	> 100 µM (inactive)	> 100 µM (inactive)	> 100	> 100 µM (inactive)	> 68.1 µM (inactive)	> 100 µM (inactive)	> 100 µM (inactive)	> 100 µM (inactive)	> 100 µM (inactive)	> 100 µM (inactive)	> 100 µM (inactive)	> 100 µM (inactive)	> 100 µM (inactive)	> 100 µM (inactive)	> 100 µM (inactive)	> 94 µM (inactive)	
CCOP(=O)(OCC)/C(C#N)=C/c1cccn1C	> 100 µM (inactive)	> 100 µM (inactive)	> 100 µM (inactive)	> 100 µM (inactive)	> 100 µM (inactive)	> 100	> 100 µM (inactive)	> 100 µM (inactive)	> 100 µM (inactive)	> 100 µM (inactive)	> 100 µM (inactive)	> 100 µM (inactive)	> 100 µM (inactive)	> 100 µM (inactive)	> 100 µM (inactive)	> 100 µM (inactive)	> 100 µM (inactive)	> 100 µM (inactive)	> 100 µM (inactive)	> 100 µM (inactive)
CC(=O)NC1=CC(=O)C=C(Cl)C1=O	> 100 µM (inactive)	> 100 µM (inactive)	39.3 µM (inactive)	> 100 µM (inactive)	> 100 µM (inactive)	> 100	> 100 µM (inactive)	> 100 µM (inactive)	42.3 µM (inactive)	17.9 µM (inactive)	22.2 µM (inactive)	> 100 µM (inactive)	28.9 µM (inactive)	> 100 µM (inactive)	92.5 µM (inactive)	> 100 µM (inactive)	> 100 µM (inactive)	> 100 µM (inactive)	> 100 µM (inactive)	> 100 µM (inactive)
CC(C)(C)OC(=O)N(CCCCNCc1ccc2ccccc2c1)CCCNCc1ccc2ccccc2c1	1.41 µM (inactive)	1.17 µM (inactive)	1.17 µM (inactive)	1.69 µM (inactive)	0.254 µM (active)	1.57	1.64 µM (inactive)	1.3 µM (inactive)	1.96 µM (inactive)	1.84 µM (inactive)	0.708 µM (active)	0.736 µM (active)	1.58 µM (inactive)	1.67 µM (inactive)	1.69 µM (inactive)	1.44 µM (inactive)	1.74 µM (inactive)	1.94 µM (inactive)	1.52 µM (inactive)	1.86 µM (inactive)
C/C(=N\c1cc(Cl)cc(Cl)c1)c1ccncc1	> 100 µM (inactive)	> 100 µM (inactive)	> 100 µM (inactive)	> 100 µM (inactive)	> 100 µM (inactive)	> 100	> 100 µM (inactive)	> 100 µM (inactive)	> 100 µM (inactive)	> 100 µM (inactive)	> 100 µM (inactive)	> 100 µM (inactive)	> 100 µM (inactive)	> 100 µM (inactive)	> 100 µM (inactive)	> 100 µM (inactive)	> 100 µM (inactive)	29.9 µM (inactive)	> 100 µM (inactive)	> 100 µM (inactive)
OC(c1cc(C(O)(C(F)(F)F)C(F)(F)F)ncn1)(C(F)(F)F)C(F)(F)F	> 10 µM (inactive)	> 10 µM (inactive)	> 10 µM (inactive)	> 10 µM (inactive)	> 10 µM (inactive)	> 10	> 10 µM (inactive)	> 10 µM (inactive)	> 10 µM (inactive)	> 10 µM (inactive)	> 10 µM (inactive)	> 10 µM (inactive)	> 10 µM (inactive)		> 10 µM (inactive)	> 10 µM (inactive)	> 10 µM (inactive)	> 10 µM (inactive)	> 10 µM (inactive)	> 10 µM (inactive)
CN(C)CCOC(=O)COc1ccc(Cl)cc1 [CENTROPHENOXINE HYDROCHLORIDE]	> 100 µM (inactive)	> 100 µM (inactive)	> 100 µM (inactive)	> 100 µM (inactive)	> 100 µM (inactive)	> 100	> 100 µM (inactive)	> 100 µM (inactive)	> 100 µM (inactive)	> 100 µM (inactive)	> 100 µM (inactive)	> 100 µM (inactive)	> 100 µM (inactive)	> 100 µM (inactive)	> 100 µM (inactive)	> 100 µM (inactive)	> 100 µM (inactive)	> 100 µM (inactive)	52.8 µM (inactive)	> 100 µM (inactive)
O=S(=O)(Nc1nc2ccccc2nc1Nc1ccc2ccccc2c1)c1ccccc1	20.3 µM (inactive)	27.4 µM (inactive)	12.4 µM (inactive)	20.3 µM (inactive)	7.1 µM (inactive)	11.1	9.59 µM (inactive)	6 µM (inactive)	9.04 µM (inactive)	10.8 µM (inactive)	5.24 µM (inactive)	7.53 µM (inactive)	5.15 µM (inactive)	26.4 µM (inactive)	20.4 µM (inactive)	15.3 µM (inactive)	10.9 µM (inactive)	7.78 µM (inactive)	26.5 µM (inactive)	10.7 µM (inactive)
CCN(CC)C(=O)c1cc([N+](=O)[O-])c(=O)n2c1[nH]c1ccccc12	> 100 µM (inactive)	> 100 µM (inactive)	> 100 µM (inactive)	> 100 µM (inactive)	> 100 µM (inactive)		> 100 µM (inactive)	> 100 µM (inactive)	> 100 µM (inactive)	> 100 µM (inactive)	> 100 µM (inactive)	> 100 µM (inactive)	> 100 µM (inactive)	> 100 µM (inactive)	> 100 µM (inactive)	> 100 µM (inactive)	> 100 µM (inactive)	> 100 µM (inactive)	> 100 µM (inactive)	> 100 µM (inactive)
N=c1c2c3n(c4c(=O)n(-c5ccccc5)c(=S)n(c(=O)n1-c1ccccc1)c24)CCCCC3	> 100 µM (inactive)	> 100 µM (inactive)	> 100 µM (inactive)	> 100 µM (inactive)	> 100 µM (inactive)	> 100	> 100 µM (inactive)	> 100 µM (inactive)	> 100 µM (inactive)	> 100 µM (inactive)		> 100 µM (inactive)	> 100 µM (inactive)	> 100 µM (inactive)	> 75.7 µM (inactive)	> 89.7 µM (inactive)	> 100 µM (inactive)	> 81.1 µM (inactive)	> 63.1 µM (inactive)	99.3 µM (inactive)
CC(C)C[S+]1C2=C(CC(C)(C)CC2=O)[N-]c2ccccc21 (stereo not given)	> 100 µM (inactive)	> 100 µM (inactive)	> 100 µM (inactive)	> 100 µM (inactive)	> 100 µM (inactive)	> 100	> 100 µM (inactive)	> 100 µM (inactive)	> 100 µM (inactive)	> 100 µM (inactive)	67.8 µM (inactive)	> 100 µM (inactive)	> 100 µM (inactive)	> 100 µM (inactive)	> 100 µM (inactive)	> 100 µM (inactive)	> 100 µM (inactive)	> 100 µM (inactive)	> 100 µM (inactive)	> 100 µM (inactive)
COc1cc2c(cc1OC)C(Cc1ccccc1CCCl)=NCC2	> 100 µM (inactive)	76.6 µM (inactive)	26.6 µM (inactive)	> 100 µM (inactive)	24.2 µM (inactive)	25.1	27 µM (inactive)	36.8 µM (inactive)	38.1 µM (inactive)	40.1 µM (inactive)	38.6 µM (inactive)	21.9 µM (inactive)	15.9 µM (inactive)	> 100 µM (inactive)	43.7 µM (inactive)	21.2 µM (inactive)	22.5 µM (inactive)	> 100 µM (inactive)	30.3 µM (inactive)	> 100 µM (inactive)
c1ccc2c(c1)-c1ccccc1C2N1CC2CCC(CC2)C1	35.1 µM (inactive)	32 µM (inactive)	20.5 µM (inactive)	29.9 µM (inactive)	16.9 µM (inactive)	16.8	20.7 µM (inactive)	19 µM (inactive)	26.7 µM (inactive)	25.1 µM (inactive)	12.3 µM (inactive)	19.8 µM (inactive)	10.5 µM (inactive)	18 µM (inactive)	17.8 µM (inactive)	24.1 µM (inactive)	17.1 µM (inactive)	44.1 µM (inactive)	27 µM (inactive)	25.2 µM (inactive)
CCOC(=O)C(=[N+]=[N-])C(=O)Nc1nn2nnnc2c2ccccc12	> 100 µM (inactive)	> 100 µM (inactive)	> 100 µM (inactive)	> 100 µM (inactive)	> 100 µM (inactive)		> 100 µM (inactive)	> 100 µM (inactive)	> 100 µM (inactive)	> 100 µM (inactive)	> 100 µM (inactive)	> 100 µM (inactive)	> 100 µM (inactive)	> 100 µM (inactive)	> 100 µM (inactive)	> 100 µM (inactive)	> 100 µM (inactive)	> 100 µM (inactive)	33.8 µM (inactive)	> 100 µM (inactive)
